Test results from PubChem BioAssay (NCI).
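Values below derive from 48-hour exposures of cells grown in 96-well plates, with endpoints linearly interpolated between the two concentrations bracketing the appropriate inhibition level. GI50: concentration for 50% inhibition of growth. TGI is the concentration that stops growth completely.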

How the values were obtained:
Assay in all cases: DTP human tumour cell line panel, 48 h
OVCAR-8 ovarian = test system: OVCAR-8 ovarian
SK-MEL-28 melanoma = test system: SK-MEL-28 melanoma
A498 renal = test system: A498 renal
OVCAR-3 ovarian = test system: OVCAR-3 ovarian
HOP-62 NSCLC = test system: HOP-62 NSCLC
UACC-257 melanoma = test system: UACC-257 melanoma
SK-OV-3 ovarian = test system: SK-OV-3 ovarian
HS 578T breast = test system: HS 578T breast
TK-10 renal = test system: TK-10 renal
HL-60(TB) leukemia = test system: HL-60(TB) leukemia

| Structure (SMILES) | TGI (OVCAR-8 ovarian) | TGI (SK-MEL-28 melanoma) | TGI (A498 renal) | TGI (OVCAR-3 ovarian) | TGI (HOP-62 NSCLC) | TGI (UACC-257 melanoma) | TGI (SK-OV-3 ovarian) | TGI (HS 578T breast) | TGI (TK-10 renal) | TGI (HL-60(TB) leukemia) | GI50 (A498 renal) | GI50 (OVCAR-3 ovarian) | GI50 (SK-OV-3 ovarian) | GI50 (HL-60(TB) leukemia) | GI50 (TK-10 renal) |
| --- | --- | --- | --- | --- | --- | --- | --- | --- | --- | --- | --- | --- | --- | --- | --- |
| Cc1cc2nc3c(N)nn(CCCN(C)C)c3nc2cc1C | > 100 µM | > 100 µM | > 100 µM | > 100 µM | > 100 µM | > 100 µM | > 100 µM | > 100 µM | > 100 µM |  |  |  |  |  |  |
| C/C(=C\COP(=O)(O)OP(=O)(O)O)CC/C=C(\C)CNc1c(F)c(F)c(F)c(F)c1F | > 100 µM | > 100 µM |  | > 100 µM | > 100 µM | > 100 µM | > 100 µM | > 100 µM | > 100 µM | > 100 µM |  |  |  |  |  |
| COC1=CC(=O)C2(C=C1OC)OC[C@H]1Oc3c(ccc4c3C=CC(C)(C)O4)C(=O)[C@H]12 (some centres not stated) | > 100 µM | > 100 µM | > 100 µM | > 100 µM | > 100 µM | > 100 µM | > 100 µM |  | > 100 µM | 44.6 µM |  |  |  |  |  |
| Clc1ccc(Cc2nc3cc4ccccc4cc3[nH]2)cc1Cl | 49.8 µM | 29.4 µM | 27.7 µM | 61 µM | 82.9 µM | 37.7 µM |  | 64.5 µM | 39.8 µM | 59.2 µM |  |  |  |  |  |
| C#C[C@]1(O)CC[C@H]2[C@@H]3CCC4=C/C(=N/OC(=O)c5cccc6cc7ccccc7nc56)CC[C@@H]4[C@H]3CC[C@@]21CC | > 100 µM | > 100 µM | > 100 µM | > 100 µM | > 100 µM | > 100 µM | > 100 µM | > 100 µM |  | > 100 µM |  |  |  |  |  |
| O=C1C=C2SC3C[C@@]24CC1(O)[N+]1=c2c4c(c(O)c4c2=C(C=N4)CC1)N3 | 3.63 µM | 3.03 µM | 3.33 µM | 0.515 µM | 3.24 µM | 2.42 µM | 3.78 µM |  |  | 0.534 µM |  |  |  |  |  |
| CCCOC(=O)CCC(NC(=O)c1ccc(Nc2nc3ccccc3nc2-c2cccs2)cc1)C(=O)OCCC (configuration not stated) | > 100 µM | > 100 µM |  | > 100 µM | > 100 µM |  | > 100 µM |  | > 100 µM |  |  |  |  |  |  |
| COc1ccc(/C=C(\C#N)c2ccccn2)cc1OC | > 100 µM | > 100 µM |  | > 100 µM | > 100 µM | > 100 µM | > 100 µM |  | > 100 µM | > 100 µM |  |  |  |  |  |
| COC(=O)C(=O)C(C(=O)C(=O)Nc1cc(C)ccc1C)c1nc2ccccc2[nH]c1=O (configuration not stated) | > 100 µM | > 100 µM | > 100 µM | > 100 µM | > 100 µM | > 100 µM | > 100 µM | > 100 µM | > 100 µM |  |  |  |  |  |  |
| CCCNC(=O)c1cc(OC)c(OC)cc1NC(=O)C12CC3CC(CC(C3)C1)C2 | 66.6 µM | 32.6 µM | 31.6 µM | 35.4 µM | 34.7 µM | 32.8 µM |  | 51.5 µM | 31.3 µM | > 100 µM |  |  |  |  |  |
| O=S(c1ccc(O)cc1)c1ccc(O)cc1 |  | > 100 µM |  | > 100 µM | > 100 µM | > 100 µM | > 100 µM |  | > 100 µM | > 100 µM |  |  |  |  |  |
| CCN(CC)C(=O)N[C@@H](CC(C)C)C(=O)NC | > 100 µM | > 100 µM | > 100 µM | > 100 µM | > 100 µM |  | > 100 µM | > 100 µM |  | > 100 µM |  |  |  |  |  |
| O=c1[nH]nc(-c2cccc([N+](=O)[O-])c2)[nH]1 | > 100 µM | > 100 µM | > 100 µM | > 100 µM | > 100 µM | > 100 µM |  | > 100 µM | > 100 µM | > 100 µM |  |  |  |  |  |
| Cc1n[nH]c(=O)c2c3c([nH]c12)-c1ccccc1C3 | > 100 µM | > 100 µM | > 100 µM | > 100 µM | > 100 µM | > 100 µM | > 100 µM | > 100 µM | > 100 µM |  |  |  |  |  |  |
| O=C1c2cccc3cc([N+](=O)[O-])cc(c23)C(=O)N1c1ccc(OCCN2CCCC2)cc1 | > 100 µM | 45.9 µM | 32.2 µM |  | 76.4 µM | 36.1 µM |  | > 100 µM | 81.3 µM | 29 µM |  |  |  |  |  |
| COC(OC)c1cccc2c1C(=O)CCC1(CC2)OCCCCO1 | > 100 µM | > 100 µM | > 100 µM | > 100 µM | > 100 µM | > 100 µM | > 100 µM |  | > 100 µM | > 100 µM |  |  |  |  |  |
| CCCCCCCC(=O)NC(C)(C)C(=O)NCC(=O)NC(CC(C)C)C(=O)NC(C)(C)C(=O)NCC(=O)NCC(=O)NC(CC(C)C)C(=O)NC(C)(C)C(=O)NCC(=O)NC(C(=O)NC(CO)CC(C)C)C(C)CC (configuration not stated) | 7.62 µM | 7.32 µM |  | 6.36 µM | 8.12 µM | 7.96 µM | 7.61 µM | 8.81 µM | 8.17 µM |  |  |  |  |  |  |
| CN1C/C(=C\c2ccccc2)C2=NN(C(N)=S)[C@H](c3ccccc3)[C@@H]2C1 |  | > 100 µM | > 100 µM | > 100 µM | > 100 µM | > 100 µM | > 100 µM |  | > 100 µM | 54.8 µM |  |  |  |  |  |
| N#CCCN(C(=O)Nc1ccc(NC(=O)N(CCC#N)c2ccccc2)cc1)c1ccccc1 | > 100 µM | > 100 µM | > 100 µM | > 100 µM | > 100 µM |  | > 100 µM | > 100 µM |  | > 100 µM |  |  |  |  |  |
| C=CC[PH+](c1ccccc1)c1ccccc1.C=CC[PH+](c1ccccc1)c1ccccc1.[Pt+2].[S-]c1nc2ccccc2[nH]1.[S-]c1nc2ccccc2[nH]1 |  |  | 4.98 µM | 5.16 µM |  |  | 27.4 µM |  | 67.4 µM | 7.32 µM | 1.72 µM | 1.9 µM | 3.16 µM | 2.51 µM | 3.29 µM |
| CC(NC(CC12CC3CC(CC(C3)C1)C2)C(N)=O)c1ccccc1 (configuration not stated) | 64.4 µM | 40.4 µM | 31.5 µM | 26.6 µM | > 100 µM | 41.8 µM | > 100 µM |  | > 100 µM | 28.4 µM |  |  |  |  |  |
| Cc1cccc(NC(=S)NNC(=O)c2cc(-c3ccccc3)nc3ccccc23)c1 | > 100 µM | > 100 µM | 47.6 µM | 66.5 µM | 99.3 µM | > 100 µM | 59.2 µM | > 100 µM | > 100 µM |  |  |  |  |  |  |
